Data from ChEMBL document CHEMBL1147323, “The effect of ginsenoside-Rb2 on nitrogen balance” (1989).

Assays:
[1] = tested on: Rattus norvegicus; experiment: Effect on nitrogen balance in Wistar rat diabetic model assessed as residual urinary nitrogen at 10 mg/day, ip for 6 days measured 6 hrs after last dose relative to diabetic control; format: functional, Urine
[2] = tested on: Rattus norvegicus; experiment: Effect on nitrogen balance in Wistar rat diabetic model assessed as residual fecal nitrogen at 10 mg/day, ip for 6 days measured 6 hrs after last dose relative to diabetic control; format: functional, Feces
[3] = tested on: Rattus norvegicus; experiment: Effect on nitrogen balance in Wistar rat diabetic model assessed as residual urinary nitrogen at 10 mg/day, ip for 6 days measured 6 hrs after last dose relative to non-diabetic control; format: functional, Urine
[4] = tested on: Rattus norvegicus; experiment: Effect on nitrogen balance in Wistar rat diabetic model assessed as absorbed nitrogen at 10 mg/day, ip for 6 days measured 6 hrs after last dose relative to non-diabetic control; format: functional
[5] = tested on: Rattus norvegicus; experiment: Effect on nitrogen balance in Wistar rat diabetic model assessed as retained nitrogen at 10 mg/day, ip for 6 days measured 6 hrs after last dose relative to non-diabetic control; format: functional
[6] = tested on: Rattus norvegicus; experiment: Effect on nitrogen balance in Wistar rat diabetic model assessed as absorbed nitrogen at 10 mg/day, ip for 6 days measured 6 hrs after last dose relative to diabetic control; format: functional
[7] = tested on: Rattus norvegicus; experiment: Effect on nitrogen balance in Wistar rat diabetic model assessed as residual fecal nitrogen at 10 mg/day, ip for 6 days measured 6 hrs after last dose relative to non-diabetic control; format: functional, Feces
[8] = tested on: Rattus norvegicus; experiment: Effect on nitrogen balance in Wistar rat diabetic model assessed as retained nitrogen at 10 mg/day, ip for 6 days measured 6 hrs after last dose relative to diabetic control; format: functional

CC(C)=CCC[C@](C)(O[C@@H]1O[C@H](CO[C@@H]2OC[C@H](O)[C@H](O)[C@H]2O)[C@@H](O)[C@H](O)[C@H]1O)[C@H]1CC[C@]2(C)[C@@H]1[C@H](O)C[C@@H]1[C@@]3(C)CC[C@H](O[C@@H]4O[C@H](CO)[C@@H](O)[C@H](O)[C@H]4O[C@@H]4O[C@H](CO)[C@@H](O)[C@H](O)[C@H]4O)C(C)(C)[C@@H]3CC[C@]12C [GINSENOSIDE RB2]
Activity [1]: 75% | Activity [2]: 93% | Activity [3]: 223% | Activity [4]: 225% | Activity [5]: 313% | Activity [6]: 104% | Activity [7]: 186% | Activity [8]: 415%
